Experimental data reported in patent publication US10570152B2, “Antibacterial therapeutics and prophylactics” (VYOME BIOSCIENCES PVT. LTD., priority 2015, dated 2020).
Values after ≈ are worked out from the molar mass of the structure shown.

How the values were obtained:
Assay in all cases: MIC by micro broth dilution
Type in all cases: cell-based
S. aureus MTCC 6908 = settings: Staphylococcus aureus, MTCC6908, read-out: Minimum inhibitory concentration (MIC)
Description: (§1) MIC of DART molecules were determined by micro broth dilution as per CLSI guidelines. Bacterial strains were cultured in Brain Heart Infusion Agar (BHIA) at 37° C. for 24 h. For MIC determination, BHI broth (100 μl) was added to each of the wells of a 96 well plate. 100 μl of broth containing drug was added to the first well (1A to 1H) and thereafter serial (double) dilutions were carried out for up to 10 wells (column 1 to column 10 of the 96 well plate). Bacterial inoculum was prepared by adjusting the bacterial culture turbidity to 0.5 McFarland standard (approximately 1.5×10^8 cells/ml) and further diluted (100 times with sterile BHI broth). Diluted bacterial suspension (100 μl) was added to each well except sterility control wells (column 12 of 96 well plate). The plates were incubated at 37° C. for 24 h. The MIC of the test compound was measured after addition of Alamar blue dye.

S. aureus ATCC 43300 = settings: S. aureus ATCC 43300; for MIC: Staphylococcus aureus, ATCC43300, read-out: Minimum inhibitory concentration (MIC)
Description: as §1

[1] = test system: S. epidermidis ATCC 35984; settings: Staphylococcus epidermidis, ATCC35984, read-out: Minimum inhibitory concentration (MIC)
Description: as §1

E. faecium NCIM 5421 = settings: Enterococcus faecium, NCIM5421, read-out: Minimum inhibitory concentration (MIC)
Description: as §1

S. aureus CCARM 3505 = settings: Staphylococcus aureus, CCARM3505, read-out: Minimum inhibitory concentration (MIC)
Description: as §1

S. epidermidis S12-1 = settings: Staphylococcus epidermidis, S121, read-out: Minimum inhibitory concentration (MIC)
Description: as §1

MIC (S. aureus MTCC 6908) | MIC (S. aureus ATCC 43300) | MIC [1] | MIC (E. faecium NCIM 5421) | MIC (S. aureus CCARM 3505) | MIC (S. epidermidis S12-1) | Minimum inhibitory concentration (MIC) (S. aureus ATCC 43300) | SMILES
16 µg/mL (≈ 31.3 µM) | > 16 µg/mL | 16 µg/mL (≈ 31.3 µM) | > 16 µg/mL | > 16 µg/mL | > 16 µg/mL | – | CC(=O)NC[C@H]1CN(c2ccc(N3CCN(Cc4nc5ccc([N+](=O)[O-])cc5[nH]4)CC3)c(F)c2)C(=O)O1 [Compound 65, (S)—N-((3-(3-Fluoro-4-(4-((6-nitro-1H-benzo[d]imidazol-2-yl)methyl)piperazin-1-yl)phenyl)-2-oxooxazolidin-5-yl)methyl)acetamide]
8 µg/mL (≈ 14.9 µM) | – | 8 µg/mL (≈ 14.9 µM) | > 16 µg/mL | > 16 µg/mL | > 16 µg/mL | 8/16 | CC(=O)NC[C@H]1CN(c2ccc(N3CCN(Cc4nc5cc(Cl)c(Cl)cc5[nH]4)CC3)c(F)c2)C(=O)O1 [Compound 66, (S)—N-((3-(4-(4-((5,6-Dichloro-1H-benzo[d]imidazol-2-yl)methyl)piperazin-1-yl)-3-fluorophenyl)-2-oxooxazolidin-5-yl)methyl)acetamide]
16 µg/mL (≈ 30.5 µM) | > 64 µg/mL | > 16 µg/mL | > 16 µg/mL | > 16 µg/mL | > 16 µg/mL | – | CC(=O)NC[C@H]1CN(c2ccc(N3CCN(CC(=O)Nc4ccc5nc(N)[nH]c5c4)CC3)c(F)c2)C(=O)O1 [Compound 68, (S)-2-(4-(4-(5-(acetamidomethyl)-2-oxooxazolidin-3-yl)-2-fluorophenyl)piperazin-1-yl)-N-(2-amino-1H-benzo[d]imidazol-6-yl)acetamide]
4 µg/mL (≈ 7.63 µM) | 16 µg/mL (≈ 30.5 µM) | > 16 µg/mL | > 16 µg/mL | > 16 µg/mL | > 16 µg/mL | – | CC(=O)NC[C@H]1CN(c2ccc(N3CCN(C(=O)c4c[nH]c5ccc([N+](=O)[O-])cc45)CC3)c(F)c2)C(=O)O1 [Compound 75, (S)—N-((3-(3-fluoro-4-(4-(5-nitro-1H-indole-3-carbonyl)piperazin-1-yl)phenyl)-2-oxooxazolidin-5-yl)methyl)acetamide]
4 µg/mL (≈ 7.69 µM) | 8 µg/mL (≈ 15.4 µM) | 2 µg/mL (≈ 3.84 µM) | > 16 µg/mL | 8 µg/mL (≈ 15.4 µM) | 4 µg/mL (≈ 7.69 µM) | – | CC(=O)NC[C@H]1CN(c2ccc(N3CCN(C(=O)c4cccc(Br)n4)CC3)c(F)c2)C(=O)O1 [Compound 76, (S)—N-((3-(4-(4-(6-Bromopicolinoyl)piperazin-1-yl)-3-fluorophenyl)-2-oxooxazolidin-5-yl)methyl)acetamide]

The next lines start with the compound.

SMILES | MIC (S. aureus MTCC 6908) | MIC (S. aureus ATCC 43300) | MIC [1] | MIC (E. faecium NCIM 5421) | MIC (S. aureus CCARM 3505) | MIC (S. epidermidis S12-1) | Minimum inhibitory concentration (MIC) (S. aureus ATCC 43300)
CCNC(=O)N1CCN(c2cc3c(cc2F)c(=O)c(C(=O)O)c2n3C(C)S2)CC1 (stereo not drawn) [Compound 48, 7-(4-(Ethylcarbamoyl)piperazin-1-yl)-6-fluoro-1-methyl-4-oxo-1H,4H-[1,3]thiazeto[3,2-a]quinoline-3-carboxylic acid] | 2 µg/mL (≈ 4.76 µM) | 1 µg/mL (≈ 2.38 µM) | 0.5 µg/mL (≈ 1.19 µM) | > 16 µg/mL | > 16 µg/mL | > 16 µg/mL | –
CC(=O)NC[C@H]1CN(c2ccc(N3CCN(C(=O)c4csc(N)n4)CC3)c(F)c2)C(=O)O1 [Compound 57, (S)—N-((3-(4-(4-(2-aminothiazole-4-carbonyl)piperazin-1-yl)-3-fluorophenyl)-2-oxooxazolidin-5-yl)methyl)acetamide] | 8 µg/mL (≈ 17.3 µM) | 16 µg/mL (≈ 34.6 µM) | > 16 µg/mL | > 16 µg/mL | > 16 µg/mL | > 16 µg/mL | –
CC(=O)NC[C@H]1CN(c2ccc(N3CCN(C(=O)c4csc(NC(=N)N)n4)CC3)c(F)c2)C(=O)O1 [Compound 58, (S)—N-((3-(3-fluoro-4-(4-(2-guanidinothiazole-4-carbonyl)piperazin-1-yl)phenyl)-2-oxooxazolidin-5-yl)methyl)acetamide] | > 16 µg/mL | > 16 µg/mL | > 16 µg/mL | > 16 µg/mL | > 16 µg/mL | > 16 µg/mL | –
CC(=O)NC[C@H]1CN(c2ccc(N3CCN(C(=O)c4ccccn4)CC3)c(F)c2)C(=O)O1 [Compound 77, (S)—N-((3-(3-fluoro-4-(4-picolinoylpiperazin-1-yl)phenyl)-2-oxooxazolidin-5-yl)methyl)acetamide] | 4 µg/mL (≈ 9.06 µM) | 8 µg/mL (≈ 18.1 µM) | 4 µg/mL (≈ 9.06 µM) | 0.5 µg/mL (≈ 1.13 µM) | 8 µg/mL (≈ 18.1 µM) | 4 µg/mL (≈ 9.06 µM) | –
